Data as given in patent US4442093A, “Method for administering 24,25-dihydroxycholecalciferol to persons suffering from hypercalcemia” (Kureha Kagaku Kogyo Kabushiki Kaisha, priority 1981, dated 1984).

Legend:
calcium level in serum = experiment: Serum calcium in patient with hyperparathyroidism accompanied by hypercalcemia (Example 6); format: in vivo, human; conditions: person seventeen, 10 µg/day oral
Description: The thus prepared capsule composition was tentatively applied to the following two cases of human hyperparathyroidism accompanied by hypercalcemia:
To patient seventeen suffering from hyperparathyroidism accompanied by hypercalcemia, one of the capsule composition prepared as above containing 1 microgram of the active ingredient in one capsule was orally administered at a daily dose of 10 micrograms of 24R,25-(OH)2 -D3 for continuous 4 days.

[1] = test system: mononucleates (lymphocytes) of peripheral blood; experiment: Blastoid-transformation of rat lymphocytes in peripheral blood, 3H-TdR uptake (Example 13); format: in vivo
Protocol: The effect of the present compound on the blastoid-transformation of rat lymphocytes in the peripheral blood was examined as follows: After mixing each of the blood specimens taken from the respective rats of the four groups in Example 11 added with heparin and RPMI-1640 culture medium at a weight ratio of 1:1, the mixture was added to Ficoll-Paque solution, and the thus obtained mixture was subjected to centrifugal separation at 400 G for 20 min to collect the layer of mononucleates. After washing the thus collected mononucleates three times with PRMI-1640 culture medium (in a liquid state), the washed mononucleates were suspended into RPMI-1640 culture medium added with 10% by weight of calf serum to be in concentration of 1.5×10^6 cells/ml. Hundred microliters of the thus prepared suspension was placed in the pit of Pharcon microtest II plate, and after adding a substance promoting cell division (hereinafter referred to as mitogen) and RPMI-1640 culture medium added with 10% by weight of calf serum to the thus placed suspension to make the total volume 200 microliters, the thus prepared mixture was incubated for 72 hours under a gas (a 95:5 by volume mixture of air and carbon dioxide saturated with moisture) flow at 37° C. ^3 H-methylthymidine of specific activity of 5 Ci/mmol was added to the mixture during incubation at the time 24 hours before the incubation was over in an amount corresponding to 0.5 micro Ci. After the incubation was over, the cells in the culture were collected by filtering the cultured mixture, and the amount of radioactive isotope uptaken into the cells was determined by a liquid scintillation counter. For reference, the mitogen used in the present test is concanavalin A for T-cell or lipopolysaccharide for B-cell.

[2] = test system: lymphocytes from a healthy person; experiment: Effect of plasma of treated renal failure/uremia patients on blastoid-transformation of lymphocytes from a healthy person (Example 14); format: cell-based, human; conditions: 0.5 to 1.0 µg/day oral, 1 to 6 months
Description: Effects of plasma derived from a patient suffering from chronic renal failure or uremia treated with the present compound or not treated therewith on blastoid-transformation of lymphocytes from a healthy person Heparinized fresh peripheral blood of a normal person was mixed with Ficoll-Paque solution, and after subjecting the mixture to ultracentrifugal separation, the layer of lymphocyte was collected, and after washing the layer three times with phosphate buffer solution, the washed lymphocytes were dispersed in suspension in RPMI-1640 culture medium (liquid) at a concentration of 6×10^5 cells/ml. […] Then, the specimen was harvested to determine the uptake of ^3 H-TdR by the lymphocytes. In addition, the plasma of each patient was collected two times, namely, once before hemodialysis and once after hemodialysis, and accordingly the total patient system of the present test consists of two large groups one of which is administered and the other of which is not administered with the compound, and each large group consists of two groups one of which is not yet hemodialysed and the other of which has been already hemodialysed.

[3] = test system: inorganic phosphate in serum; experiment: Serum inorganic phosphate in chronic renal failure patients without hemodialysis (Example 20); format: in vivo, human
Protocol: Eight patients suffering from chronic renal failure and not being subjected to hemodialysis shown in Table 14 were treated by oral daily administration of 24R,25-(OH)2 -D3 in a form of the soft capsule composition obtained in Example 6 at a daily dose of 2 to 10 micrograms for 8 weeks. The concentration of inorganic phosphate in the serum of each patient before the above-mentioned administration and that after completion of the above-mentioned administration for 8 weeks were determined by the Molybdenum Blue method, the results being shown in Table 14.

[4] = test system: inorganic phosphate in serum; experiment: Serum inorganic phosphate in chronic renal failure patients under hemodialysis (Example 21); format: in vivo, human
Protocol: Eight patients suffering from chronic renal failure under the treatment of hemodialysis two times a week while using a dialysate containing 9 to 10 mg/dl of calcium component were further treated by oral administration of 24R,25-(OH)2 -D3 in a form of the soft capsule composition obtained in Example 6 at a daily dose of 2 to 10 micrograms for 6 weeks, and the concentration of inorganic phosphate in the serum of each patient before the commencement of the administration and that after completion of the administration were determined by Molybdenum Blue method.

[5] = 30-day repeated oral administration toxicity (Example 26); format: in vivo, ICR mouse; conditions: 10 to 1000 µg/kg/day p.o., 30 days
Protocol: 24R,25-(OH)2 -D3 was dissolved in Panacete® 810 containing 1% by weight of ethanol, and the solution was forcibly p.o. administered once a day for 30 continuous days to each male or female ICR mouse of the groups shown in Table 20 at each one of the daily dose rates also shown in Table 20.
As the control, Panacete 810 was solely and forcibly p.o. administered to the mice of the same strain once a day for 30 continuous days.

[6] = 100 µg/kg/day oral 12 days with puromycin aminonucleoside
[7] = average of 8 patients, baseline

## C=C1CC[C@H](O)C/C1=C/C=C1\CCC[C@]2(C)[C@@H]([C@H](C)CC[C@@H](O)C(C)(C)O)CC[C@@H]12 [24R,25-(OH)2 -D3]
Calcium level in serum
  calcium level in serum after administration for 4 days: 10.8 mg/dL
[1]; [6]
  Uptake of 3H-TdR in presence of Concanavalin A: 3995 ± 412 cpm
  Uptake of 3H-TdR in presence of Lipopolysaccharide: 3568 ± 372 cpm
[1]; po, 0.1 mg/kg, 288 h
  Number of mononucleate (ratio, first group = 1.00): 0.68 ± 0.17
[2]; after hemodialysis
  Uptake of 3H-TdR in the presence of lectin from kidney beans: 222480 ± 21253 cpm
  Uptake of 3H-TdR in the presence of lipopolysaccharide: 129984 ± 51385 cpm
[2]; before hemodialysis
  Uptake of 3H-TdR in the presence of lectin from kidney beans: 228906 ± 19081 cpm
  Uptake of 3H-TdR in the presence of lipopolysaccharide: 158950 ± 48245 cpm
[3]; average of 8 patients, 2 to 10 µg/day, 8 weeks
  Concentration of inorganic phosphate after administration, average: 4.60 ± 0.66 mg/dL
[3]; [7]
  Concentration of inorganic phosphate before administration, average: 6.24 ± 0.53 mg/dL
[3]; patient 1 (person six), 10 µg/day, 8 weeks
  Concentration of inorganic phosphate after administration: 5.5 mg/dL
[3]; patient 1 (person six), baseline
  Concentration of inorganic phosphate before administration: 7.2 mg/dL
[3]; patient 2 (person sixteen), 6 µg/day, 8 weeks
  Concentration of inorganic phosphate after administration: 4.7 mg/dL
[3]; patient 2 (person sixteen), baseline
  Concentration of inorganic phosphate before administration: 6.3 mg/dL
[3]; patient 3 (person four), 4 µg/day, 8 weeks
  Concentration of inorganic phosphate after administration: 4.7 mg/dL
[3]; patient 3 (person four), baseline
  Concentration of inorganic phosphate before administration: 5.9 mg/dL
[3]; patient 4 (person twelve), 8 µg/day, 8 weeks
  Concentration of inorganic phosphate after administration: 4.9 mg/dL
[3]; patient 4 (person twelve), baseline
  Concentration of inorganic phosphate before administration: 6.5 mg/dL
[3]; patient 5 (person twenty), 6 µg/day, 8 weeks
  Concentration of inorganic phosphate after administration: 5.3 mg/dL
[3]; patient 5 (person twenty), baseline
  Concentration of inorganic phosphate before administration: 6.6 mg/dL
[3]; patient 6 (person three), 4 µg/day, 8 weeks
  Concentration of inorganic phosphate after administration: 3.8 mg/dL
[3]; patient 6 (person three), baseline
  Concentration of inorganic phosphate before administration: 5.8 mg/dL
[3]; patient 7 (person one), 2 µg/day, 8 weeks
  Concentration of inorganic phosphate after administration: 3.7 mg/dL
[3]; patient 7 (person one), baseline
  Concentration of inorganic phosphate before administration: 5.5 mg/dL
[3]; patient 8 (person ten), 6 µg/day, 8 weeks
  Concentration of inorganic phosphate after administration: 4.2 mg/dL
[3]; patient 8 (person ten), baseline
  Concentration of inorganic phosphate before administration: 6.1 mg/dL
[3]; patient of chronic renal failure, normal level 2.5 to 5.5 mg/dl
  inorganic phosphate level in serum: significantly reduced to the normal level
[4]; all patients, after completion of the administration
  metastatic calcification (roentgenographic examination): metastatic calcification was not recognized
[4]; average of 8 patients, 2 to 10 µg/day, 6 weeks
  Concentration of inorganic phosphorus after administration, average: 4.36 ± 0.76 mg/dL
[4]; [7]
  Concentration of inorganic phosphorus before administration, average: 6.63 ± 0.77 mg/dL
[4]; one patient, after completion of the administration
  osteomalacia (bone biopsy): improvement of osteomalacia was confirmed
[4]; patient 1 (person fifteen), 8 µg/day, 6 weeks
  Concentration of inorganic phosphorus after administration: 4.9 mg/dL
[4]; patient 1 (person fifteen), baseline
  Concentration of inorganic phosphorus before administration: 7.2 mg/dL
[4]; patient 2 (person one), 6 µg/day, 6 weeks
  Concentration of inorganic phosphorus after administration: 4.7 mg/dL
[4]; patient 2 (person one), baseline
  Concentration of inorganic phosphorus before administration: 6.7 mg/dL
[4]; patient 3 (person five), 10 µg/day, 6 weeks
  Concentration of inorganic phosphorus after administration: 5.2 mg/dL
[4]; patient 3 (person five), baseline
  Concentration of inorganic phosphorus before administration: 8.0 mg/dL
[4]; patient 4 (person nine), 4 µg/day, 6 weeks
  Concentration of inorganic phosphorus after administration: 4.2 mg/dL
[4]; patient 4 (person nine), baseline
  Concentration of inorganic phosphorus before administration: 5.8 mg/dL
[4]; patient 5 (person eleven), 8 µg/day, 6 weeks
  Concentration of inorganic phosphorus after administration: 5.3 mg/dL
[4]; patient 5 (person eleven), baseline
  Concentration of inorganic phosphorus before administration: 7.1 mg/dL
[4]; patient 6 (person eighteen), 6 µg/day, 6 weeks
  Concentration of inorganic phosphorus after administration: 3.5 mg/dL
[4]; patient 6 (person eighteen), baseline
  Concentration of inorganic phosphorus before administration: 6.3 mg/dL
[4]; patient 7 (person eight), 2 µg/day, 6 weeks
  Concentration of inorganic phosphorus after administration: 3.5 mg/dL
[4]; patient 7 (person eight), baseline
  Concentration of inorganic phosphorus before administration: 5.8 mg/dL
[4]; patient 8 (person thirteen), 6 µg/day, 6 weeks
  Concentration of inorganic phosphorus after administration: 3.6 mg/dL
[4]; patient 8 (person thirteen), baseline
  Concentration of inorganic phosphorus before administration: 6.1 mg/dL
[4]; patient of chronic renal failure given hemodialysis
  inorganic phosphate level in serum: significant reduction of the inorganic phosphate level in their serum to the normal level
[5]
  histopathological examination of organs: no abnormal findings were obtained
[5]; all groups
  body weight: no significant difference of body weight was observed
  weights of internal organs: not significantly different
